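Cultured in 96-well plates, cells were exposed to test compound for 48 hours across five concentrations. Definition used: TGI = concentration required for complete inhibition of growth.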
Legend:
Test in all cases: NCI anticancer screen, dose series, 48 h
786-0 renal = tested on: 786-0 renal
A498 renal = tested on: A498 renal
A549 NSCLC = tested on: A549 NSCLC
ACHN renal = tested on: ACHN renal
CAKI-1 renal = tested on: CAKI-1 renal
CCRF-CEM leukemia = tested on: CCRF-CEM leukemia
COLO 205 colon = tested on: COLO 205 colon
DLD-1 colon = tested on: DLD-1 colon
DMS 114 small cell lung = tested on: DMS 114 small cell lung
DMS 273 small cell lung = tested on: DMS 273 small cell lung
EKVX NSCLC = tested on: EKVX NSCLC
HCC-2998 colon = tested on: HCC-2998 colon
HCT-116 colon = tested on: HCT-116 colon
HCT-15 colon = tested on: HCT-15 colon
HL-60(TB) leukemia = tested on: HL-60(TB) leukemia
HOP-62 NSCLC = tested on: HOP-62 NSCLC
HT29 colon = tested on: HT29 colon
IGROV1 ovarian = tested on: IGROV1 ovarian
K-562 leukemia = tested on: K-562 leukemia
KM12 colon = tested on: KM12 colon
KM20L2 colon = tested on: KM20L2 colon
LOX IMVI melanoma = tested on: LOX IMVI melanoma
LXFL 529 NSCLC = tested on: LXFL 529 NSCLC
M14 melanoma = tested on: M14 melanoma
M19-MEL melanoma = tested on: M19-MEL melanoma
MALME-3M melanoma = tested on: MALME-3M melanoma
MOLT-4 leukemia = tested on: MOLT-4 leukemia
NCI-H23 lung = tested on: NCI-H23 lung
NCI-H460 lung = tested on: NCI-H460 lung
OVCAR-3 ovarian = tested on: OVCAR-3 ovarian
OVCAR-4 ovarian = tested on: OVCAR-4 ovarian
OVCAR-5 ovarian = tested on: OVCAR-5 ovarian
OVCAR-8 ovarian = tested on: OVCAR-8 ovarian
RPMI-8226 leukemia = tested on: RPMI-8226 leukemia
RXF 393 renal = tested on: RXF 393 renal
RXF-631 renal = tested on: RXF-631 renal
SF-268 CNS = tested on: SF-268 CNS
SF-295 CNS = tested on: SF-295 CNS
SF-539 CNS = tested on: SF-539 CNS
SK-MEL-2 melanoma = tested on: SK-MEL-2 melanoma
SK-MEL-28 melanoma = tested on: SK-MEL-28 melanoma
SK-MEL-5 melanoma = tested on: SK-MEL-5 melanoma
SK-OV-3 ovarian = tested on: SK-OV-3 ovarian
SN12C renal = tested on: SN12C renal
SNB-19 CNS = tested on: SNB-19 CNS
SNB-75 CNS = tested on: SNB-75 CNS
SNB-78 CNS = tested on: SNB-78 CNS
SW-620 colon = tested on: SW-620 colon
TK-10 renal = tested on: TK-10 renal
U251 CNS = tested on: U251 CNS
UACC-257 melanoma = tested on: UACC-257 melanoma
UACC-62 melanoma = tested on: UACC-62 melanoma
UO-31 renal = tested on: UO-31 renal
XF 498 CNS = tested on: XF 498 CNS
HOP-92 NSCLC = tested on: HOP-92 NSCLC
NCI-H522 lung = tested on: NCI-H522 lung

Measured: TGI

CCOP(=O)(OCC)C1CC(C)OC1=O (configuration not stated)
> 100 µM: 786-0 renal | A498 renal | A549 NSCLC | ACHN renal | CAKI-1 renal | CCRF-CEM leukemia | COLO 205 colon | DLD-1 colon | DMS 114 small cell lung | DMS 273 small cell lung | EKVX NSCLC | HCC-2998 colon | HCT-116 colon | HCT-15 colon | HL-60(TB) leukemia | HOP-62 NSCLC | HT29 colon | IGROV1 ovarian | K-562 leukemia | KM12 colon | KM20L2 colon | LOX IMVI melanoma | LXFL 529 NSCLC | M14 melanoma | M19-MEL melanoma | MALME-3M melanoma | MOLT-4 leukemia | NCI-H23 lung | NCI-H460 lung | OVCAR-3 ovarian | OVCAR-4 ovarian | OVCAR-5 ovarian | OVCAR-8 ovarian | RPMI-8226 leukemia | RXF 393 renal | RXF-631 renal | SF-268 CNS | SF-295 CNS | SF-539 CNS | SK-MEL-2 melanoma | SK-MEL-28 melanoma | SK-MEL-5 melanoma | SK-OV-3 ovarian | SN12C renal | SNB-19 CNS | SNB-75 CNS | SNB-78 CNS | SW-620 colon | TK-10 renal | U251 CNS | UACC-257 melanoma | UACC-62 melanoma | UO-31 renal | XF 498 CNS

Cc1cc2c(c3c1c1ccccc1n3C)C(=O)c1ccccc1C2=O
> 100 µM: 786-0 renal | A549 NSCLC | ACHN renal | CCRF-CEM leukemia | COLO 205 colon | DLD-1 colon | DMS 114 small cell lung | DMS 273 small cell lung | EKVX NSCLC | HCC-2998 colon | HCT-116 colon | HCT-15 colon | HL-60(TB) leukemia | HOP-62 NSCLC | HOP-92 NSCLC | HT29 colon | IGROV1 ovarian | K-562 leukemia | KM12 colon | KM20L2 colon | LOX IMVI melanoma | LXFL 529 NSCLC | M14 melanoma | M19-MEL melanoma | MALME-3M melanoma | MOLT-4 leukemia | NCI-H23 lung | NCI-H460 lung | NCI-H522 lung | OVCAR-3 ovarian | OVCAR-4 ovarian | OVCAR-5 ovarian | OVCAR-8 ovarian | RPMI-8226 leukemia | RXF 393 renal | RXF-631 renal | SF-268 CNS | SF-295 CNS | SF-539 CNS | SK-MEL-2 melanoma | SK-MEL-28 melanoma | SK-MEL-5 melanoma | SN12C renal | SNB-19 CNS | SNB-75 CNS | SNB-78 CNS | SW-620 colon | TK-10 renal | U251 CNS | UACC-257 melanoma | UACC-62 melanoma | UO-31 renal | XF 498 CNS
